This assay has as its system primary rat mixed cortical cells. Briefly: In vitro myelination assay (MBP positive myelin strands, fold myelin pixels above background). The format is cell-based. The following applies: Rattus norvegicus; for fold induction at 1 µM: 1.0 μM compound; for fold induction at 10 µM: 10.0 μM compound. The text has this:
In Vitro Myelination Assay
Compounds were screened for their ability to induce myelination using a primary rat mixed cortical cell culture assay, which contains neurons, oligodendrocyte precursor cells, oligodendrocytes, astrocytes and microglia. The assay quantifies myelination by measuring myelin basic protein (MBP) immunofluorescent positive myelin strands from images taken using a Cellomics Array Scan (model Arrayscan VTI HCS Reader) or a Molecular Devices Image Xpress (model IXM XL) high content imager. The myelin strands were quantitated using a custom created myelin detection software program. Test compounds were dissolved in DMSO to make a 10 mM initial stock solution. Dilutions were made in myelination medium to obtain the final solutions for the assay and were tested in primary rat mixed cortical cells at selected doses.
Primary rat mixed cortical cells were prepared from harvested cerebral cortices from postnatal day 1 (P1) rats (P1 Rat CD® IGS pups) were purchased from Charles River) in Complete Dissociation Medium, wherein the meninges were removed and the cortical tissue chopped with a razor blade into ˜1 mm^3 pieces. Tissue from 1-3 pups was collected and placed into 15 ml conical tubes in a total volume of 5 ml of Complete Dissociation Medium. Activated papain (3 ml) was added to each 15 ml conical tube and tissue was incubated at 37° C. for 30 minutes. After the 30 minute incubation, DNase (Sigma D4527; 75 μl of a 1 mg/ml stock) was added to each tube, followed by mechanical trituration using a 2 ml serological pipette and autopipettor to gently dissociate the tissue. Following trituration, larger tissue pieces were allowed to settle by gravity, and the supernatant containing dissociated cells was transferred to a 50 ml conical tube with 4 ml of trypsin inhibitor. Cells were pelleted by centrifugation, resuspended in myelination medium and filtered through a 40 μm filter. Cells were then seeded in 96-well plates (BD Biosciences, Black, PDL-coated, Cat. No. 356640) at 87,500-95,000 cells/well in a final volume of 200 μl of Myelination Medium in the presence or absence of compound and cultured for 14 days in a humidified 37° C. incubator with 5% CO2. Half the medium was removed and replaced with fresh medium containing 1× compound on days 6 and 10. Using a Biotek automatic plate washer (model Biomek® FXP Laboratory Automation Workstation), cells were fixed with 4% paraformaldehyde on day 14, washed with PBS and blocked in 5% normal goat serum (Vector Laboratories, S-1000) in 0.1% PBS-TritonX-100 (PBST) for 1 hour. Cells were stained with 1:500 anti-MBP (Covance, cat # SMI99) primary antibody in 1% normal goat serum in 0.1% PBST for 2 hours at room temperature followed by 2 washes with PBST. A final incubation in secondary antibody (1:1000, Invitrogen, Alexa-488 anti-mouse IgG2b) and 1:10,000 Hoechst dye in 1% normal goat serum in 0.1% PBST was performed for 2 hours at room temperature. Plates were washed with PBS and then scanned on a Cellomics Array Scan using a 10× objective (25 images per well) or the Image Xpress using a 10× objective (9 image per well). Images were analyzed using Vertex myelin detection software (described below) to quantify total MBP myelin pixels per well. Fold myelin pixels above background at two concentrations (1.0 μM and 10.0 μM) relative to baseline of no added compound are reported below in Table 4. Standard deviation for each compound concentration was calculated using all replicates and using a standard deviation formula commonly used in the art.
One of skill in the art would recognize that for this type of primary neuronal mixed cell assay variability between different assay runs is to be expected even though the protocol is the same for each assay run. For instance, variability may be due to small differences in cell viability, cell density, age of the animals, etc.
Vertex Myelin Detection Software: […]

The mark [1] stands for this setting: relative to baseline of no added compound, read-out: Fold myelin pixels above background.
Where [2] appears, read: read-out: Fold myelin pixels above background relative to baseline of no added compound.
[3] abbreviates: relative to baseline of no added compound, read-out: Fold myelin pixels above background, 1.0 μM.
[4] abbreviates: relative to baseline of no added compound, read-out: Fold myelin pixels above background, 10.0 μM.

Where two headings read alike, the source gives them in different places. A value given as a limit tells only on which side of the number the result lay.

For the compound `Fc1ccc(-n2cnc(Nc3cc(C4CC4)nc(N4CC[C@@H](F)C4)c3)n2)cc1F` [Compound 498, 2-cyclopropyl-N-[1-(3,4-difluorophenyl)-1,2,4-triazol-3-yl]-6-[(3R)-3-fluoropyrrolidin-1-yl]pyridin-4-amine], under setting [1], the fold induction at 1 µM fell in the range of 100 to 1000 and the fold induction at 10 µM was 100 to 1000.
On to `Cc1cc(Nc2ncn(-c3cc(F)cc(F)c3)n2)cc(N2CCC(OCCN(C)C)CC2)c1` [Compound 933, 1-(3,5-difluorophenyl)-N-[3-[4-[2-(dimethylamino)ethoxy]-1-piperidyl]-5-methyl-phenyl]-1,2,4-triazol-3-amine], for which, under setting [2], the fold induction at 1 µM lay within 1 to 10 and the fold induction at 10 µM was at most 1.
On to `Fc1cc(F)cc(-n2cnc(Nc3cc(C(F)(F)F)cc(N4CCN([C@@H]5CCOC5)CC4)n3)n2)c1` (single isomer, unassigned) [Compound 672], for which, under setting [1], the fold induction at 1 µM was in the range of 1 to 10 and the fold induction at 10 µM lay within 1 to 10.
Take `Cc1cc(Nc2ncn(-c3cc(F)cc(F)c3)n2)cc(N2CCC3(CCCO3)CC2)c1` [Compound 851, 1-(3,5-difluorophenyl)-N-[3-methyl-5-(1-oxa-8-azaspiro[4.5]decan-8-yl)phenyl]-1,2,4-triazol-3-amine]: under setting [2], the fold induction at 1 µM fell in the range of 1 to 10 and the fold induction at 10 µM lay within 10 to 100.
As to `Fc1cc(Nc2ncn(-c3cccc(F)c3)n2)cc(N2CCOCC2)c1` [Compound 158, N-(3-fluoro-5-morpholino-phenyl)-1-(3-fluorophenyl)-1,2,4-triazol-3-amine], the fold induction at 1 µM under setting [3] is 10 to 100. For the same compound, the fold induction at 10 µM under setting [4] lay within 100 to 1000.
In the case of `Cc1cc(Nc2ncn(-c3cc(F)cc(F)c3)n2)cc(N2CC(C(=O)N3CCOCC3)C2)c1` [Compound 690, [1-[3-[[1-(3,5-difluorophenyl)-1,2,4-triazol-3-yl]amino]-5-methyl-phenyl]azetidin-3-yl]-morpholino-methanone], under setting [1], the fold induction at 1 µM is 1 to 10 and the fold induction at 10 µM lay in the range of 10 to 100.
With `Cc1cc(Nc2ncn(-c3cc(F)cc(F)c3)n2)cc(N2CCN3CCC[C@@H]3C2)c1` [Compound 128, N-[3-[(8aR)-3,4,6,7,8,8a-hexahydro-1H-pyrrolo[1,2-a]pyrazin-2-yl]-5-methyl-phenyl]-1-(3,5-difluorophenyl)-1,2,4-triazol-3-amine], the fold induction at 1 µM under setting [3] fell in the range of 10 to 100. Further, the fold induction at 10 µM under setting [4] is 10 to 100.
Regarding `[2H]C1([2H])NC([2H])([2H])C([2H])([2H])N(c2cc(C)cc(Nc3ncn(-c4cc(F)cc(F)c4)n3)c2)C1([2H])[2H]` [Compound 916, 1-(3,5-difluorophenyl)-N-[3-methyl-5-(2,2,3,3,5,5,6,6-octadeuteriopiperazin-1-yl)phenyl]-1,2,4-triazol-3-amine], under setting [2], the fold induction at 1 µM was 10 to 100 and the fold induction at 10 µM was at most 1.
In the case of `Cc1cc(Nc2ncn(-c3cc(F)cc(F)c3)n2)cc(N2CC3(CCO3)C2)c1` [Compound 508, 1-(3,5-difluorophenyl)-N-[3-methyl-5-(3-oxa-6-azaspiro[3.3]heptan-6-yl)phenyl]-1,2,4-triazol-3-amine], under setting [1], the fold induction at 1 µM was in the range of 100 to 1000 and the fold induction at 10 µM was in the range of 10 to 100.
On to `CCc1cc(Nc2ncn(-c3ccc(F)c(C)c3)n2)cc(N2CCN(C3COC3)CC2)c1` [Compound 829, N-[3-ethyl-5-[4-(oxetan-3-yl)piperazin-1-yl]phenyl]-1-(4-fluoro-3-methyl-phenyl)-1,2,4-triazol-3-amine], for which, under setting [2], the fold induction at 1 µM was in the range of 1 to 10 and the fold induction at 10 µM is at most 1.
Turning to `CN1CCN(c2cc(F)cc(Nc3ncn(-c4ccccc4)n3)c2)CC1` [Compound 213, N-[3-fluoro-5-(4-methylpiperazin-1-yl)phenyl]-1-phenyl-1,2,4-triazol-3-amine], the fold induction at 1 µM under setting [3] fell in the range of 100 to 1000. The fold induction at 10 µM under setting [4] is at most 1.
As for `Cc1cc(Nc2ncn(-c3cc(F)cc(F)c3)n2)cc(N[C@H]2C[C@@H](N3CCOCC3)C2)c1` (single isomer, unassigned) [Compound 861, N1-[1-(3,5-difluorophenyl)-1,2,4-triazol-3-yl]-5-methyl-N3-(3-morpholinocyclobutyl)benzene-1,3-diamine], under setting [2], the fold induction at 1 µM is 10 to 100 and the fold induction at 10 µM was at most 1.
`Cc1cc(Nc2ncn(-c3cc(F)cc(F)c3)n2)cc(N2CC3CCC(C2)O3)c1` [Compound 692, 1-(3,5-difluorophenyl)-N-[3-methyl-5-(8-oxa-3-azabicyclo[3.2.1]octan-3-yl)phenyl]-1,2,4-triazol-3-amine]: under setting [1], the fold induction at 1 µM lay within 10 to 100 and the fold induction at 10 µM was in the range of 10 to 100.
As for `Fc1cc(F)cc(-n2cnc(Nc3cc(C4CC4)nc(N4CC[C@@H](F)C4)c3)n2)c1` [Compound 105, 2-cyclopropyl-N-[1-(3,5-difluorophenyl)-1,2,4-triazol-3-yl]-6-[(3R)-3-fluoropyrrolidin-1-yl]pyridin-4-amine], the fold induction at 1 µM under setting [3] was 100 to 1000. Under setting [4], the fold induction at 10 µM was in the range of 1 to 10.
In the case of `Cc1cc(Nc2ncn(-c3cc(F)cc(F)c3)n2)cc(N2CCC(CN3CCOCC3)C2)c1` (stereo not drawn) [Compound 983, 1-(3,5-difluorophenyl)-N-[3-methyl-5-[3-(morpholinomethyl)pyrrolidin-1-yl]phenyl]-1,2,4-triazol-3-amine], under setting [2], the fold induction at 1 µM is 1 to 10 and the fold induction at 10 µM was 1 to 10.
Regarding `Fc1cc(F)cc(-n2cnc(Nc3cc(N4CCN(C5COC5)CC4)nc(C(F)(F)F)c3)n2)c1` [Compound 760, N-[1-(3,5-difluorophenyl)-1,2,4-triazol-3-yl]-2-[4-(oxetan-3-yl)piperazin-1-yl]-6-(trifluoromethyl)pyridin-4-amine], under setting [1], the fold induction at 1 µM is 1 to 10 and the fold induction at 10 µM was at most 1.
For the compound `COCCN(C)C(=O)C1CN(c2cc(C)cc(Nc3ncn(-c4cc(F)cc(F)c4)n3)c2)C1` [Compound 824, 1-[3-[[1-(3,5-difluorophenyl)-1,2,4-triazol-3-yl]amino]-5-methyl-phenyl]-N-(2-methoxyethyl)-N-methyl-azetidine-3-carboxamide], under setting [2], the fold induction at 1 µM is 10 to 100 and the fold induction at 10 µM was 1 to 10.
Consider `Cc1cc(Nc2ncn(-c3ccccn3)n2)cc(N2CCN(C)CC2)c1` [Compound 138, N-[3-methyl-5-(4-methylpiperazin-1-yl)phenyl]-1-(2-pyridyl)-1,2,4-triazol-3-amine], for which, under setting [3], the fold induction at 1 µM was in the range of 10 to 100. In addition, the fold induction at 10 µM under setting [4] is 100 to 1000.
Consider `Cc1cc(Nc2ncn(-c3ccccc3)n2)cc(N2CCC(C)(O)C2)c1` (stereo not drawn) [Compound 6], for which the fold induction at 1 µM under setting [3] lay in the range of 100 to 1000. The fold induction at 10 µM under setting [4] was in the range of 10 to 100.
For `Cc1cc(Nc2ncn(-c3cc(F)cc(F)c3)n2)cc(N2CCN(C3CCCC3O)CC2)c1` (stereo not drawn) [Compound 875, 2-[4-[3-[[1-(3,5-difluorophenyl)-1,2,4-triazol-3-yl]amino]-5-methyl-phenyl]piperazin-1-yl]cyclopentanol], under setting [2], the fold induction at 1 µM was 10 to 100 and the fold induction at 10 µM is at most 1.
Regarding `COc1cccc(-n2cnc(Nc3cc(C)cc(N4CCN(C)CC4)c3)n2)c1` [Compound 94, 1-(3-methoxyphenyl)-N-[3-methyl-5-(4-methylpiperazin-1-yl)phenyl]-1,2,4-triazol-3-amine], the fold induction at 1 µM under setting [3] was in the range of 100 to 1000. Under setting [4], the fold induction at 10 µM lay in the range of 1 to 10.

Source of the values: patent US10766869B2, “Triazoles for the treatment of demyelinating dieases” (Vertex Pharmaceuticals Incorporated, priority 2015, dated 2020).
